Data: patent US12507720B2, “Use of anthocyanin-anionic polysaccharide complex for preventing or treating influenza virus A infection” (JBKLAB CO., LTD., priority 2019, dated 2025)

Format: physicochemical
Conditions: pH 3
Description: The amount of anthocyanin was confirmed using a spectrophotometer to confirm the stability of the complex prepared in Example 1 over time. 40 ml of the anthocyanin-alginic acid complex was centrifuged at 13000 rpm for 30 minutes, and the precipitate was dispersed in PBS (pH 3 or pH 7.4). In addition, anthocyanin was prepared by dissolving thereof in PBS (pH 3 or pH 7.4). The absorbance of the complex and anthocyanin dispersed in PBS (pH 3 or pH 7.4) was measured with a spectrophotometer at each wavelength band of 513 nm or 520 nm, respectively, and the change in the absorbance value of anthocyanin was observed.

anthocyanin
stability (in words): stable
